Laboratory results taken from patent US11427869B2, “T cell balance gene expression, compositions of matters and methods of use thereof” (THE BROAD INSTITUTE, INC., priority 2015, dated 2022).

Tested on: CD5L−/− Th17 cells
Test: Nanostring nCounter Th17 codeset (312 genes), PUFA- or control-treated CD5L−/− Th17 cells
Assay type: cell-based, mouse
Details: CD5LKO Th17 cells + PUFA
Source text: Applicants studied the contribution of lipid saturation to Th17 cell pathogenicity. […] Applicants analyzed the expression of a 312 gene signature of Th17 cell differentiation and function (Yosef et al., 2013) in SFA- or control-treated WT Th17 cells and in PUFA- or control-treated CD5L−/− Th17 cells differentiated with TGF-81+IL-6.
T cell differentiation culture. Naïve CD4+CD44−CD62L+CD25− T cells or Effector memory CD4+CD44+CD62L− were sorted using BD FACSAria sorter and activated with plate-bound anti-CD3 and anti-CD28 antibodies (both at 2 μg/ml) in the presence of cytokines at a concentration of 2.5×10^5 cells/ml. For Th17 differentiation: 2 ng/ml of rhTGFβ1, 2 ng/ml of rhTGFβ3, 25 ng/ml rmIL-6, 20 ng/ml rmIL-18 (all from Miltenyi Biotec) and 20 ng/ml rmIL-23 (R & D systems) were used at various combinations as specified in figures. For Th1 differentiation, 20 ng/ml rmIL-12 (R & D systems); for Th2 differentiation 20 ng/ml rmIL-4 (Miltenyi Biotec); for iTreg differentiation, 2.5 ng/ml of rhTGFβ1 were used (Miltenyi Biotec). For differentiation experiments, cells were harvested at 48 hours. For restimulation experiments, cells were differentiated for 48 hours and resuspended in fresh media with no additional cytokines for 48-72 hours. Cells were re-stimulated with PMA/ionomycin for four hours before analysis for cytokines by intracellular cytokine staining. For experiments with exogenous fatty acid, fatty acids were purchased and resuspended first with serum-free media containing BSA prior being added to culture.
Nanostring nCounter. Nanostring nCounter platform (NanoString Technologies) is used to measure the number of RNA transcripts in RNA samples (FIG. 16I, FIG. 18D). A codeset containing 312 signature genes of Th17 cell differentiation and function as well as 4 additional house-keeping genes were custom-made (Yosef et al., 2013) and used in these experiments. Experimental procedures as detailed by the manufacturer is strictly followed.

CCCCC/C=C\C/C=C\C/C=C\C/C=C\CCCC(=O)O [PUFA, arachidonic acid]
ATF2 expression (Nanostring), normalized to WT: 0.89
Abcg2 expression (Nanostring), normalized to WT: 1.20
Acvr2a expression (Nanostring), normalized to WT: 1.32
Ahr expression (Nanostring), normalized to WT: 1.08
Arl5a expression (Nanostring), normalized to WT: 1.33
Atf4 expression (Nanostring), normalized to WT: 0.73
BC021614 expression (Nanostring), normalized to WT: 1.04
Bcl2l11 expression (Nanostring), normalized to WT: 0.71
Bcl3 expression (Nanostring), normalized to WT: 1.13
Bcl11b expression (Nanostring), normalized to WT: 1.03
Bhlhe40 expression (Nanostring), normalized to WT: 0.70
Casp3 expression (Nanostring), normalized to WT: 0.71
Casp4 expression (Nanostring), normalized to WT: 1.52
Ccl1 expression (Nanostring), normalized to WT: 0.67
Ccl20 expression (Nanostring), normalized to WT: 0.84
Ccr4 expression (Nanostring), normalized to WT: 1.69
Ccr8 expression (Nanostring), normalized to WT: 0.71
Cd9 expression (Nanostring), normalized to WT: 1.27
Cd70 expression (Nanostring), normalized to WT: 0.77
Cd83 expression (Nanostring), normalized to WT: 0.88
Cd86 expression (Nanostring), normalized to WT: 1.73
Cd247 expression (Nanostring), normalized to WT: 1.32
Clcf1 expression (Nanostring), normalized to WT: 1.25
Csf2 expression (Nanostring), normalized to WT: 1.20
Ctla4 expression (Nanostring), normalized to WT: 1.63
Cxcl10 expression (Nanostring), normalized to WT: 1.64
Cxcr3 expression (Nanostring), normalized to WT: 1.44
Cxcr4 expression (Nanostring), normalized to WT: 0.87
Cxcr5 expression (Nanostring), normalized to WT: 1.42
EBF1 expression (Nanostring), normalized to WT: 1.64
Egr2 expression (Nanostring), normalized to WT: 1.64
Elk3 expression (Nanostring), normalized to WT: 1.04
Ercc5 expression (Nanostring), normalized to WT: 0.66
Etv6 expression (Nanostring), normalized to WT: 1.70
Faim3 expression (Nanostring), normalized to WT: 1.31
Fli1 expression (Nanostring), normalized to WT: 1.35
Flna expression (Nanostring), normalized to WT: 1.10
Foxo1 expression (Nanostring), normalized to WT: 1.03
Foxp1 expression (Nanostring), normalized to WT: 1.25
Foxp3 expression (Nanostring), normalized to WT: 1.22
Frmd4b expression (Nanostring), normalized to WT: 1.28
Fxd7 expression (Nanostring), normalized to WT: 0.72
Gap43 expression (Nanostring), normalized to WT: 0.68
Gem expression (Nanostring), normalized to WT: 0.73
Gimap5 expression (Nanostring), normalized to WT: 1.58
Gja1 expression (Nanostring), normalized to WT: 0.66
Gmfg expression (Nanostring), normalized to WT: 0.76
Grn expression (Nanostring), normalized to WT: 1.16
Gusb expression (Nanostring), normalized to WT: 0.94
Hip1r expression (Nanostring), normalized to WT: 0.89
IL-33 expression (Nanostring), normalized to WT: 0.66
Ifih1 expression (Nanostring), normalized to WT: 1.25
Ifng expression (Nanostring), normalized to WT: 0.93
Ikzf3 expression (Nanostring), normalized to WT: 1.06
Il1r1 expression (Nanostring), normalized to WT: 1.36
Il2ra expression (Nanostring), normalized to WT: 0.99
Il3 expression (Nanostring), normalized to WT: 1.45
Il4ra expression (Nanostring), normalized to WT: 1.13
Il6st expression (Nanostring), normalized to WT: 0.89
Il7r expression (Nanostring), normalized to WT: 1.37
Il10 expression (Nanostring), normalized to WT: 1.01
Il10ra expression (Nanostring), normalized to WT: 0.95
Il12rb1 expression (Nanostring), normalized to WT: 0.80
Il12rb2 expression (Nanostring), normalized to WT: 1.60
Il17a expression (Nanostring), normalized to WT: 1.11
Il17f expression (Nanostring), normalized to WT: 0.71
Il21 expression (Nanostring), normalized to WT: 0.97
Il23r expression (Nanostring), normalized to WT: 1.11
Il27ra expression (Nanostring), normalized to WT: 1.55
Inhba expression (Nanostring), normalized to WT: 0.81
